Measured values from patent US7202085B2, “Control of gene expression in eukaryotic cells” (Calgene LLC, priority 1999, dated 2007).
Where “and” joins values, the source holds several entries; their conditions need not be identical. Equal entries are not always repeated. Where two headings read alike, the source gives them in different places.

What was measured:
VP16-TraR = tested on: VP16-TraR
Description: Transgenic Arabidopsis plants containing TraA8(3×)-GUS reporter and 35S-VP16-TraR activator genes (pMON53077) were analyzed for induction of GUS activity. […] GUS assays were conducted as described by Jefferson et al. (supra).
In addition, detached leaves incubated for 24 hours in MS medium with or without 100 μM HSL were visualized for induction of GUS activity after staining.

tra box-GUS reporter = tested on: tra box-GUS reporter
Description: Plasmids for transfection were isolated and purified using Megaprep plasmid DNA isolation kit (Qiagen). Carrot protoplasts for transfections were prepared from carrot cell suspension culture and transfected with purified DNA as described (Ulmasov et al., Plant Cell 7:1611–1623, 1995). Briefly, 10 μg of the reporter plasmid and 5 μg of the effector plasmid were incubated with 10^6 protoplasts for five minutes at the room temperature in the presence of polyethylene glycol-calcium solution. After diluting approximately 10-fold with the culture medium, the protoplasts were incubated in the dark for 36 hours either in the presence or absence of the inducer 3-oxohexanoyl-homoserine lactone (OHHL, racemic mixture of the L- and D-isomers, purchased from Sigma Chemical Co., St Louis, Mo.). After incubation, protoplasts were collected by low-speed centrifugation, lysed and the level of GUS activity was measured using fluorometric GUS assay (Jefferson et al., EMBO J. 6:3901–3907, 1987).
Ten μg of the reporter plasmid (pMON53031), and indicated amount of the 35S effector plasmid per reaction was used for transfection in triplicate. […] The “− inducer” and “+ inducer” columns are averages of the GUS activities.
These constructs were tested for background GUS activity and TraR responsiveness in carrot protoplasts.

[1] = Table 5 lane 1: tra box (6X), cl.7 alone (35S-CAT), 12.5 μM C8-AHL
[2] = Table 5 lane 3: traA1(3X), cl.35 alone (35S-CAT), 12.5 μM C8-AHL
[3] = Table 5 lane 5: traA2(3X), cl.43 alone (35S-CAT), 12.5 μM C8-AHL
[4] = Table 5 lane 7: traA3(3X), cl.4 alone (35S-CAT), 12.5 μM C8-AHL
[5] = Table 5 lane 9: traA4(3X), cl.23 alone (35S-CAT), 12.5 μM C8-AHL
[6] = Table 5 lane 11: traA5(3X), cl.2 alone (35S-CAT), 12.5 μM C8-AHL
[7] = Table 5 lane 13: traA6(3X), cl.21 alone (35S-CAT), 12.5 μM C8-AHL
[8] = Table 5 lane 15: traA7(3X), cl.15 alone (35S-CAT), 12.5 μM C8-AHL
[9] = Table 5 lane 17: traA8(3X), cl.4 alone (35S-CAT), 12.5 μM C8-AHL
[10] = Table 5 lane 19: traA9(3X), cl.8 alone (35S-CAT), 12.5 μM C8-AHL
[11] = Table 5 lane 21: min-46GUS, 12.5 μM C8-AHL
[12] = Table 6 lane 1: Tra box(3X), cl.5 + CAT, 12.5 μM C8-AHL
[13] = Table 6 lane 3: TraA1(3X), cl.35 + CAT, 12.5 μM C8-AHL
[14] = Table 6 lane 5: TraA2(3X), cl.43 + CAT, 12.5 μM C8-AHL
[15] = Table 6 lane 7: TraA3(3X), cl.4 + CAT, 12.5 μM C8-AHL
[16] = Table 6 lane 9: TraA4(3X), cl.23 + CAT, 12.5 μM C8-AHL
[17] = Table 6 lane 11: TraA5(3X), cl.2 + CAT, 12.5 μM C8-AHL

## CCCCCC(=O)CC(=O)N[C@H]1CCOC1=O [C8-HSL, 3-oxooctanoyl-L-homoserine lactone]
VP16-TraR; detached caulline leaves, 24 hours in MS medium, 100 μM HSL
  histochemical GUS staining: uniform induced activity
VP16-TraR; plant s3553-1
  +Inducer (GUS activity): 556.56
VP16-TraR; plant s3553-2
  +Inducer (GUS activity): 554.08
VP16-TraR; plant s3554-1
  +Inducer (GUS activity): 3101.09
VP16-TraR; plant s3554-2
  +Inducer (GUS activity): 3098.61
VP16-TraR; plant s3559-1
  +Inducer (GUS activity): 599.93
VP16-TraR; plant s3559-2
  +Inducer (GUS activity): 597.45
VP16-TraR; plant s3562-1
  +Inducer (GUS activity): 75.93
VP16-TraR; plant s3562-2
  +Inducer (GUS activity): 73.45
VP16-TraR; plant s3570-1
  +Inducer (GUS activity): 4831.21
VP16-TraR; plant s3570-2
  +Inducer (GUS activity): 4828.73
VP16-TraR; plant s3573-1
  +Inducer (GUS activity): 768.65
VP16-TraR; plant s3573-2
  +Inducer (GUS activity): 766.17
VP16-TraR; plant s3575-1
  +Inducer (GUS activity): 3453.00
VP16-TraR; plant s3575-2
  +Inducer (GUS activity): 3450.52
VP16-TraR; plant s3582-1
  +Inducer (GUS activity): 559.86
VP16-TraR; plant s3582-2
  +Inducer (GUS activity): 557.38
VP16-TraR; plant s3594-1
  +Inducer (GUS activity): 515.77
VP16-TraR; plant s3594-2
  +Inducer (GUS activity): 513.29
VP16-TraR; plant wild-type
  +Inducer (GUS activity): 2.48
Tra box-GUS reporter; Table 4: min35S-GUS, 25 [i M OOHL]
  +inducer (average GUS activity): 6.1
Tra box-GUS reporter; Table 4: pMON53031 alone, 25 [i M OOHL]
  +inducer (average GUS activity): 265
Tra box-GUS reporter; [1]
  4, 5, 6 (replicate GUS activities, +inducer): 569.8 and 647.3 and 643.6
  +inducer (average GUS activity): 620.2
Tra box-GUS reporter; [2]
  4, 5, 6 (replicate GUS activities, +inducer): 110.8 and 118.5 and 145.2
  +inducer (average GUS activity): 124.8
Tra box-GUS reporter; [3]
  4, 5, 6 (replicate GUS activities, +inducer): 240.6 and 221.1 and 229.7
  +inducer (average GUS activity): 230.5
Tra box-GUS reporter; [4]
  4, 5, 6 (replicate GUS activities, +inducer): 89.3 and 94.4 and 103.2
  +inducer (average GUS activity): 95.6
Tra box-GUS reporter; [5]
  4, 5, 6 (replicate GUS activities, +inducer): 177.7 and 196.0 and 195.0
  +inducer (average GUS activity): 189.6
Tra box-GUS reporter; [6]
  4, 5, 6 (replicate GUS activities, +inducer): 20.6 and 16.2 and 13.1
  +inducer (average GUS activity): 16.6
Tra box-GUS reporter; [7]
  4, 5, 6 (replicate GUS activities, +inducer): 73.6 and 64.2 and 76.1
  +inducer (average GUS activity): 71.3
Tra box-GUS reporter; [8]
  4, 5, 6 (replicate GUS activities, +inducer): 215.1 and 200.0 and 238.6
  +inducer (average GUS activity): 217.9
Tra box-GUS reporter; [9]
  4, 5, 6 (replicate GUS activities, +inducer): 36.3 and 43.3 and 39.8
  +inducer (average GUS activity): 39.8
Tra box-GUS reporter; [10]
  4, 5, 6 (replicate GUS activities, +inducer): 32.4 and 35.6 and 36.2
  +inducer (average GUS activity): 34.7
Tra box-GUS reporter; [11]
  4, 5, 6 (replicate GUS activities, +inducer): 145.4 and 124.2 and 116.0
  +inducer (average GUS activity): 128.5
Tra box-GUS reporter; [12]
  4, 5, 6 (replicate GUS activities, +inducer): 264.6 and 251.9 and 230.9
  +inducer (average GUS activity): 249.1
Tra box-GUS reporter; [13]
  4, 5, 6 (replicate GUS activities, +inducer): 70.7 and 54.2 and 42.8
  +inducer (average GUS activity): 55.9
Tra box-GUS reporter; [14]
  4, 5, 6 (replicate GUS activities, +inducer): 125.2 and 103.0 and 110.2
  +inducer (average GUS activity): 112.8
Tra box-GUS reporter; [15]
  4, 5, 6 (replicate GUS activities, +inducer): 59.2 and 62.8 and 46.4
  +inducer (average GUS activity): 56.1
Tra box-GUS reporter; [16]
  4, 5, 6 (replicate GUS activities, +inducer): 87.9 and 86.4 and 85.9
  +inducer (average GUS activity): 86.7
Tra box-GUS reporter; [17]
  4, 5, 6 (replicate GUS activities, +inducer): 72.5 and 68.2 and 90.9
  +inducer (average GUS activity): 77.2
Tra box-GUS reporter; Table 6 lane 13: TraA6(3X), cl.21 + CAT, 12.5 μM C8-AHL
  +inducer (average GUS activity): 3.9
